Laboratory results from ChEMBL document CHEMBL1177720, “Selective hexapeptide agonists and antagonists for human complement C3a receptor” (J Med Chem, 2010).
Calls of active or inactive are those of the source. The calls are words filed in the database; no cut-off is given here. Numbered stars: 1 amine (or outer) side, 2 acyl side, 3 side chain; on linkers, the order of the positions; unused ones are H or OH. Square brackets hold non-standard residues; d marks the D form. Peptide text beside a SMILES is read from it. Orn(Me) = CN(CCC[C@H](N[*:1])C(=O)[*:2])[*:3]; 1Nal = N[C@@H](Cc1cccc2ccccc12)C(=O)O; hPhe = N[C@@H](CCc1ccccc1)C(=O)O; Cha = N[C@@H](CC1CCCCC1)C(=O)O; Nle = CCCC[C@H](N)C(=O)O

biological target: T1, C3a anaphylatoxin chemotactic receptor (Homo sapiens) (UniProt Q16581); experiment: Agonist activity at human C3a receptor in human U937 cells assessed as induction of intracellular calcium release at 1 mM; format: functional, cell-based; details: U-937
T1 sequence (whole entry): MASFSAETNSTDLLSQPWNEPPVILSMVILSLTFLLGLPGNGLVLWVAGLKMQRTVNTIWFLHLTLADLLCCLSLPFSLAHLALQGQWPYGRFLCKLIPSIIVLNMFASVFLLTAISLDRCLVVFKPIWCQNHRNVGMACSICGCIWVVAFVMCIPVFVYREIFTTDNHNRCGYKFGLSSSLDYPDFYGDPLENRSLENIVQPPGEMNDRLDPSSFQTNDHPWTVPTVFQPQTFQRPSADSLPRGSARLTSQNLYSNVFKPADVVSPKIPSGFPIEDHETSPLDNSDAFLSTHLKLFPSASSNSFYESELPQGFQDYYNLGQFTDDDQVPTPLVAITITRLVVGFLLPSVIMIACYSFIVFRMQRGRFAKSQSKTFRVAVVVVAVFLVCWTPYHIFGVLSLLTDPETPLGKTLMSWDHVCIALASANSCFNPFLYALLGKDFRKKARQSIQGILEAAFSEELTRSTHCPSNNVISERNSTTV

| SMILES | Activity |
| --- | --- |
| CC[C@H](C)[C@H](NC(=O)[C@@H](NC(=O)[C@H](CC(C)C)NC(=O)[C@@H](N)Cc1ccccc1)[C@@H](C)O)C(=O)N[C@@H](C)C(=O)N[C@@H](CCCNC(=N)N)C(=O)O (H-FLTIAR-OH) | inactive |
| CC(C)C[C@H](NC(=O)[C@@H]1CCCN1C(=O)[C@H](CCCCN)NC(=O)[C@@H](N)Cc1c[nH]c2ccccc12)C(=O)N[C@@H](C)C(=O)N[C@@H](CCCNC(=N)N)C(=O)O (H-WKPLAR-OH) | inactive |
| CC(C)C[C@H](NC(=O)[C@H](CC(C)C)NC(=O)[C@@H](NC(=O)[C@H](CC(C)C)NC(=O)[C@@H](N)Cc1ccccc1)[C@@H](C)O)C(=O)N[C@@H](CCCNC(=N)N)C(=O)O (H-FLTLLR-OH) | inactive |
| C[C@H](NC(=O)[C@H](CC1CCCCC1)NC(=O)[C@@H]1CCCN1C(=O)[C@H](CCCCN)NC(=O)[C@@H](N)Cc1ccccc1)C(=O)N[C@@H](CCCNC(=N)N)C(=O)O (H-FKP[Cha]AR-OH) | inactive |
| CNCCC[C@H](NC(=O)[C@@H](N)Cc1ccccc1)C(=O)N[C@H](C(=O)N[C@@H](CC(C)C)C(=O)N[C@@H](C)C(=O)N[C@@H](CCCNC(=N)N)C(=O)O)[C@@H](C)O (H-F[Orn(Me)]TLAR-OH) | inactive |
| CC(C)C[C@H](NC(=O)[C@@H]1CCCN1C(=O)[C@H](CCCCN)NC(=O)[C@@H](N)CC1CCCCC1)C(=O)N[C@@H](C)C(=O)N[C@@H](CCCNC(=N)N)C(=O)O (H-[Cha]KPLAR-OH) | inactive |
| CC(C)C[C@H](NC(=O)[C@@H](NC(=O)[C@H](CC(C)C)NC(=O)[C@@H](N)CCCNC(=N)N)[C@@H](C)O)C(=O)N[C@@H](C)C(=O)N[C@@H](CCCNC(=N)N)C(=O)O (H-RLTLAR-OH) | inactive |
| CC(C)C[C@H](NC(=O)[C@@H](N)Cc1ccccc1)C(=O)N[C@H](C(=O)N[C@H](CC1CCCCC1)C(=O)N[C@@H](C)C(=O)N[C@@H](CCCNC(=N)N)C(=O)O)[C@@H](C)O | inactive |
| CC(C)C[C@H](NC(=O)[C@@H]1CCCN1C(=O)[C@H](CCCCN)NC(=O)[C@@H](N)Cc1cnc[nH]1)C(=O)N[C@@H](C)C(=O)N[C@@H](CCCNC(=N)N)C(=O)O (H-HKPLAR-OH) | inactive |
| CC(C)C[C@H](NC(=O)[C@@H]1CCCN1C(=O)[C@H](CCCCN)NC(=O)[C@@H](N)Cc1ccccc1)C(=O)N[C@@H](CC1CCCCC1)C(=O)N[C@@H](CCCNC(=N)N)C(=O)O (H-FKPL[Cha]R-OH) | inactive |
| C[C@H](NC(=O)[C@H](Cc1c[nH]c2ccccc12)NC(=O)[C@@H]1CCCN1C(=O)[C@H](CCCCN)NC(=O)[C@@H](N)Cc1ccccc1)C(=O)N[C@@H](CCCNC(=N)N)C(=O)O (H-FKPWAR-OH) | inactive |
| CC(C)C[C@H](NC(=O)[C@@H]1CCCN1C(=O)[C@H](CCCNC(=N)N)NC(=O)[C@@H](N)Cc1ccccc1)C(=O)N[C@@H](C)C(=O)N[C@@H](CCCNC(=N)N)C(=O)O (H-FRPLAR-OH) | inactive |

biological target: T2, C3a anaphylatoxin chemotactic receptor (Homo sapiens, UniProt Q16581); experiment: Agonist activity at human C3a receptor in human U937 cells assessed as induction of intracellular calcium release; format: functional, cell-based, U-937; details: read-out: EC50
T2 sequence (Q16581 whole entry): T1 sequence (whole entry)

| SMILES | EC50 [µM] |
| --- | --- |
| CC(C)C[C@H](NC(=O)[C@@H](N)Cc1ccccc1)C(=O)N[C@H](C(=O)N[C@@H](CC(C)C)C(=O)N1CCC[C@H]1C(=O)N[C@@H](CCCN=C(N)N)C(=O)O)[C@@H](C)O (H-FLTLPR-OH) | 29 |
| CC(C)C[C@H](NC(=O)[C@@H]1CCCN1C(=O)[C@H](CC(C)C)NC(=O)[C@@H](N)Cc1ccccc1)C(=O)N[C@@H](C)C(=O)N[C@@H](CCCNC(=N)N)C(=O)O (H-FLPLAR-OH) | 0.42 |
| N=C(N)NCCC[C@@H](NC(=O)[C@H](CC1CCCCC1)NC(=O)[C@@H](CC1CCCCC1)NC(=O)[C@@H]1CCCN1C(=O)[C@H](CCCCN)NC(=O)[C@@H](N)Cc1ccccc1)C(N)=O | 2.2 |
| CC(C)C[C@H](NC(=O)[C@@H](NC(=O)[C@H](CCCCN)NC(=O)[C@@H](N)Cc1ccccc1)[C@@H](C)O)C(=O)N[C@@H](C)C(=O)N[C@@H](CCCNC(=N)N)C(=O)O (H-FKTLAR-OH) | 3.8 |
| CC(C)C[C@H](NC(=O)[C@@H](NC(=O)[C@H](CC(C)C)NC(=O)[C@@H](N)CCc1ccccc1)[C@@H](C)O)C(=O)N[C@@H](C)C(=O)N[C@@H](CCCNC(=N)N)C(=O)O (H-[hPhe]LTLAR-OH) | 11 |
| CC(C)C[C@H](NC(=O)CNC(=O)[C@H](Cc1c[nH]c2ccccc12)NC(=O)[C@@H](N)Cc1ccccc1)C(=O)N[C@@H](C)C(=O)N[C@@H](CCCNC(=N)N)C(=O)O (H-FWGLAR-OH) | 0.47 |
| CC(C)C[C@H](NC(=O)[C@H](CO)NC(=O)[C@H](CC(C)C)NC(=O)[C@@H](N)Cc1ccccc1)C(=O)N[C@@H](C)C(=O)N[C@@H](CCCNC(=N)N)C(=O)O (H-FLSLAR-OH) | 0.36 |
| CC(C)C[C@H](NC(=O)[C@@H]1CCCN1C(=O)[C@H](CCCCN)NC(=O)[C@@H](N)Cc1ccccc1)C(=O)N[C@@H](C)C(=O)N[C@@H](CCCNC(=N)N)C(=O)O (H-FKPLAR-OH) | 33 |
| CSCC[C@H](NC(=O)[C@@H]1CCCN1C(=O)[C@H](CCCCN)NC(=O)[C@H](Cc1cnc[nH]1)NC(=O)[C@H](CO)NC(=O)[C@@H](N)Cc1ccc(O)cc1)C(=O)N1CCC[C@H]1C(=O)N[C@@H](CC(C)C)C(=O)N[C@H](C)C(=O)N[C@@H](CCCN=C(N)N)C(=O)O | 5.7 |
| CC(C)C[C@H](NC(=O)[C@@H]1CCCN1C(=O)[C@H](CCC(N)=O)NC(=O)[C@@H](N)Cc1ccccc1)C(=O)N[C@@H](C)C(=O)N[C@@H](CCCNC(=N)N)C(=O)O (H-FQPLAR-OH) | 5.3 |
| CC(C)C[C@H](NC(=O)[C@@H](NC(=O)[C@H](CC(C)C)NC(=O)[C@@H](N)Cc1ccccc1)[C@@H](C)O)C(=O)N[C@@H](C)C(=O)N[C@@H](CCCN=C(N)N)C(N)=O (H-FLTLAR-NH2) | 37 |
| CC(C)C[C@H](NC(=O)[C@@H](NC(=O)[C@H](CCCNC(=N)N)NC(=O)[C@@H](N)Cc1ccccc1)[C@@H](C)O)C(=O)N[C@@H](C)C(=O)N[C@@H](CCCNC(=N)N)C(=O)O (H-FRTLAR-OH) | 6.8 |
| CC(C)C[C@H](NC(=O)[C@@H](NC(=O)[C@H](CC(C)C)NC(=O)[C@@H](N)Cc1ccccc1)C(C)C)C(=O)N[C@@H](C)C(=O)N[C@H](CCCN=C(N)N)C(=O)O | 57 |
| CC(C)C[C@H](NC(=O)[C@@H]1CCCN1C(=O)[C@H](CCc1ccccc1)NC(=O)[C@@H](N)Cc1ccccc1)C(=O)N[C@@H](C)C(=O)N[C@@H](CCCN=C(N)N)C(=O)O (H-F[hPhe]PLAR-OH) | 1.1 |
| CCCC[C@H](NC(=O)[C@@H](N)Cc1ccccc1)C(=O)N1CCC[C@H]1C(=O)N[C@@H](CC(C)C)C(=O)N[C@@H](C)C(=O)N[C@@H](CCCN=C(N)N)C(=O)O (H-F[Nle]PLAR-OH) | 1.8 |
| CC(C)C[C@H](NC(=O)[C@@H]1CCCN1C(=O)[C@H](Cc1ccccc1)NC(=O)[C@@H](N)Cc1ccccc1)C(=O)N[C@@H](C)C(=O)N[C@@H](CCCNC(=N)N)C(=O)O (H-FFPLAR-OH) | 5.4 |
| CCCC[C@H](NC(=O)[C@@H]1CCCN1C(=O)[C@H](CCCCN)NC(=O)[C@@H](N)Cc1ccccc1)C(=O)N[C@@H](C)C(=O)N[C@@H](CCCN=C(N)N)C(=O)O (H-FKP[Nle]AR-OH) | 38 |
| CC(C)C[C@H](NC(=O)[C@@H]1CCCN1C(=O)[C@H](CC1CCCCC1)NC(=O)[C@@H](N)Cc1ccccc1)C(=O)N[C@@H](C)C(=O)N[C@@H](CCCNC(=N)N)C(=O)O (H-F[Cha]PLAR-OH) | 0.78 |
| CC(=O)N[C@@H](Cc1ccccc1)C(=O)N[C@@H](CC(C)C)C(=O)N[C@H](C(=O)N[C@@H](CC(C)C)C(=O)N[C@@H](C)C(=O)N[C@@H](CCCNC(=N)N)C(=O)O)[C@@H](C)O (Ac-FLTLAR-OH) | 0.52 |
| CC(C)C[C@H](NC(=O)[C@@H](NC(=O)[C@H](CC(C)C)NC(=O)[C@@H](N)Cc1ccc(O)cc1)[C@@H](C)O)C(=O)N[C@@H](C)C(=O)N[C@@H](CCCN=C(N)N)C(=O)O (H-YLTLAR-OH) | 2.5 |
| CCCC[C@H](NC(=O)[C@@H](NC(=O)[C@H](CC(C)C)NC(=O)[C@@H](N)Cc1ccccc1)[C@@H](C)O)C(=O)N[C@@H](C)C(=O)N[C@@H](CCCN=C(N)N)C(=O)O (H-FLT[Nle]AR-OH) | 2.7 |
| CC(C)C[C@H](NC(=O)[C@@H]1CCCN1C(=O)[C@H](CCCCN)NC(=O)[C@@H](N)Cc1ccccc1)C(=O)N[C@@H](Cc1c[nH]c2ccccc12)C(=O)N[C@@H](CCCN=C(N)N)C(=O)O (H-FKPLWR-OH) | 25 |
| CC(C)C[C@H](NC(=O)[C@@H]1CCCN1C(=O)[C@H](Cc1cccc2ccccc12)NC(=O)[C@@H](N)Cc1ccccc1)C(=O)N[C@@H](C)C(=O)N[C@@H](CCCNC(=N)N)C(=O)O (H-F[1Nal]PLAR-OH) | 0.72 |
| CC(C)C[C@H](NC(=O)[C@H](C)NC(=O)[C@H](Cc1c[nH]c2ccccc12)NC(=O)[C@@H](N)Cc1ccccc1)C(=O)N[C@@H](C)C(=O)N[C@@H](CCCN=C(N)N)C(=O)O (H-FWALAR-OH) | 1.2 |
| CC(C)C[C@H](NC(=O)[C@H](CO)NC(=O)[C@H](Cc1c[nH]c2ccccc12)NC(=O)[C@@H](N)Cc1ccccc1)C(=O)N[C@@H](C)C(=O)N[C@@H](CCCNC(=N)N)C(=O)O (H-FWSLAR-OH) | 0.49 |
| CCCC[C@H](NC(=O)[C@@H](N)Cc1ccccc1)C(=O)N[C@H](C(=O)N[C@@H](CC(C)C)C(=O)N[C@@H](C)C(=O)N[C@@H](CCCN=C(N)N)C(=O)O)[C@@H](C)O (H-F[Nle]TLAR-OH) | 0.31 |
| CC(C)C[C@H](NC(=O)[C@H](C)NC(=O)[C@H](CC(C)C)NC(=O)[C@@H](N)Cc1ccccc1)C(=O)N[C@@H](C)C(=O)N[C@@H](CCCNC(=N)N)C(=O)O (H-FLALAR-OH) | 101 |

same assay, conditions: read-out: pEC50 (converted)

| SMILES | EC50 [µM] |
| --- | --- |
| CC(C)C[C@H](NC(=O)[C@H](C)NC(=O)[C@H](CC(C)C)NC(=O)[C@@H](N)Cc1ccccc1)C(=O)N[C@@H](C)C(=O)N[C@@H](CCCNC(=N)N)C(=O)O (H-FLALAR-OH) | 1.1 |
